This test has as its target Kappa-type opioid receptor (Cavia porcellus) (UniProt P41144). In words: Displacement of [3H]U69593 from kappa opioid receptor in guinea pig brain membrane at 100 uM by Betaplate liquid scintillation counter. The test is classed as cell membranes. In general terms: Displacement assays read how much labelled ligand stays bound in the presence of the test substance.

Kappa-type opioid receptor (Cavia porcellus), sequence (P41144 whole entry): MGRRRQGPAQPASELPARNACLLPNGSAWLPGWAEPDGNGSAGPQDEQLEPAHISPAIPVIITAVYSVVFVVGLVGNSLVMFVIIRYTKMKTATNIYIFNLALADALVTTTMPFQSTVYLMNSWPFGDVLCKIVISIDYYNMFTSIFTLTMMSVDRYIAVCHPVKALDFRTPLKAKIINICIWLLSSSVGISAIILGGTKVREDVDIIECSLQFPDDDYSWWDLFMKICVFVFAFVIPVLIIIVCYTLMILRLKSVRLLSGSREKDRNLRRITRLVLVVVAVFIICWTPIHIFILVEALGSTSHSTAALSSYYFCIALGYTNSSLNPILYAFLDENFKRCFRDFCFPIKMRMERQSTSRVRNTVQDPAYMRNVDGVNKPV

`COc1ccc(Cc2c3cc4c(cc3cc[n+]2C)OCO4)cc1` displayed an Activity of 50%.
